Source: US10875874B2, “Ginkgolide B derivative and preparation method and use thereof” (Chengdu Baiyu Ginkgolide Pharmaceuticals Co., Ltd., priority 2015, dated 2020)
Converted amounts (≈) assume the structure as drawn. Marks after values point to notes of the source that are not given here.

How the values were obtained:
Water solubility test = details: purified water, thermodynamic from solid
Experimental: Measuring method: samples are ground to obtain fine powder, target compounds are quantitatively weighed, the weighed compounds are added into purified water, and the solubility of the compounds is investigated by ultrasonics.

[1] = Weekly food intake of SHR rats; assay type: in vivo, rat
In short: (§1)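 Male and female SHR rats (200-250 g, 8/group) dosed intragastrically once daily for 8 weeks with test compounds at 60 or 120 mg/kg/d or captopril 27 mg/kg; Wistar and SHR controls received distilled water. Body weight and food intake observed during treatment.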

[2] = tested on: spontaneously hypertensive rats (SHR); experiment: Caudal artery systolic pressure of spontaneously hypertensive rats, single administration; assay type: in vivo, rat; details: x ± s, n = 8
In short: (§2)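 SHR rats of both sexes (200–250 g, 8/group) dosed intragastrically with 60 or 120 mg/kg/d, or captopril 27 mg/kg, once daily for 8 weeks; Wistar rats and vehicle SHR served as controls. Tail-cuff systolic pressure taken as the mean of 3 readings, measured before dosing and 30–120 min after the first dose, or 30 min post-dose on days 1–56 for chronic treatment.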

[3] = Weekly body weight of SHR rats; assay type: in vivo, rat
In short: as §1

[4] = tested on: spontaneously hypertensive rats (SHR); experiment: Caudal artery systolic pressure of spontaneously hypertensive rats, 8 weeks of continuous medication; assay type: in vivo, rat; details: x ± s, n = 8
In short: as §2

[5] = 60 mg/kg/d intragastric, week 0
[6] = 60 mg/kg/d intragastric, week 1
[7] = 60 mg/kg/d intragastric, week 2
[8] = 60 mg/kg/d intragastric, week 3
[9] = 60 mg/kg/d intragastric, week 4
[10] = 60 mg/kg/d intragastric, week 5
[11] = 60 mg/kg/d intragastric, week 6
[12] = 60 mg/kg/d intragastric, week 7
[13] = 60 mg/kg/d intragastric, week 8
[14] = 120 mg/kg/d intragastric, week 0
[15] = 120 mg/kg/d intragastric, week 1
[16] = 120 mg/kg/d intragastric, week 2
[17] = 120 mg/kg/d intragastric, week 3
[18] = 120 mg/kg/d intragastric, week 4
[19] = 120 mg/kg/d intragastric, week 5
[20] = 120 mg/kg/d intragastric, week 6
[21] = 120 mg/kg/d intragastric, week 7
[22] = 120 mg/kg/d intragastric, week 8

With Cc1nc(C)c(C(=O)O[C@H]2C(=O)O[C@H]3O[C@]45C(=O)OC6C[C@@H](C(C)(C)C)C32[C@@]64[C@@H](O)[C@@H]2OC(=O)[C@@H](C)[C@@]25O)nc1C (some centres unmarked) [BZ] the solubility (Water solubility test) was 300 µg/mL (≈ 524 µM), the “Average dairy food intake” value [1, 5] was 18.1 g/day and the “Average dairy food intake” value [1, 6] was 19.5^▴ g/d. The “Average dairy food intake” value [1, 7] was 19.7^▴ g/d, the “Average dairy food intake” value [1, 8] was 20.4^▴▴ g/d and the “Average dairy food intake” value [1, 9] was 20.9^▴▴ g/d. For the same molecule, the “Average dairy food intake” value [1, 10] was 21.7^▴▴ g/d, the “Average dairy food intake” value [1, 11] was 22.9^▴▴ g/d and the “Average dairy food intake” value [1, 12] was 24.0^▴▴ g/d. For the same molecule, the “Average dairy food intake” value [1, 13] was 24.9^▴▴ g/d, the “Average dairy food intake” value [1, 14] was 18.0 g/day and the “Average dairy food intake” value [1, 15] was 19.3^▴ g/d. For the same molecule, the “Average dairy food intake” value [1, 16] was 20.5^▴▴ g/d, the “Average dairy food intake” value [1, 17] was 22.0^▴▴ g/d and the “Average dairy food intake” value [1, 18] was 22.6^▴▴ g/d. The “Average dairy food intake” value [1, 19] was 23.6^▴▴ g/d, the “Average dairy food intake” value [1, 20] was 24.1^▴▴ g/d and the “Average dairy food intake” value [1, 21] was 24.9^▴▴ g/d. The “Average dairy food intake” value [1, 22] was 27.0^▴▴ g/d, the Systolic pressure ([2]; 60 mg/kg intragastric single administration, 30 min) was 152.65 ± 10.48 mmHg and the Systolic pressure ([2]; 60 mg/kg intragastric single administration, 60 min) was 153.05 ± 16.39 mmHg. The Systolic pressure ([2]; 60 mg/kg intragastric single administration, 90 min) was 151.14 ± 10.87 mmHg, the Systolic pressure ([2]; 60 mg/kg intragastric single administration, 120 min) was 156.47 ± 12.47 mmHg and the Systolic pressure ([2]; 60 mg/kg intragastric single administration, before administration) was 163.58 ± 10.36 mmHg. The Systolic pressure ([2]; 120 mg/kg intragastric single administration, 30 min) was 150.00 ± 9.15 mmHg, the Systolic pressure ([2]; 120 mg/kg intragastric single administration, 60 min) was 152.95 ± 9.26 mmHg and the Systolic pressure ([2]; 120 mg/kg intragastric single administration, 90 min) was 156.28 ± 13.95 mmHg. It also gave a Systolic pressure ([2]; 120 mg/kg intragastric single administration, 120 min) of 169.36 ± 10.63 mmHg, a Systolic pressure ([2]; 120 mg/kg intragastric single administration, before administration) of 166.24 ± 12.14 mmHg and a Body weight [3, 5] of 231.0 g. For the same molecule, the Body weight [3, 6] was 235.7 g, the Body weight [3, 7] was 242.5 g and the Body weight [3, 8] was 251.6 g. For the same molecule, the Body weight [3, 9] was 259.4^▴ g, the Body weight [3, 10] was 263.6^▴ g and the Body weight [3, 11] was 269.1^▴▴ g. For the same molecule, the Body weight [3, 12] was 276.8^▴▴ g, the Body weight [3, 13] was 288.0^▴▴ g and the Body weight [3, 14] was 268.9 g. The Body weight [3, 15] was 249.4^▴▴ g, the Body weight [3, 16] was 256.7^▴▴ g and the Body weight [3, 17] was 262.4^▴▴ g. The Body weight [3, 18] was 268.9^▴▴ g, the Body weight [3, 19] was 280.7^▴▴ g and the Body weight [3, 20] was 291.3^▴▴ g. The Body weight [3, 21] was 305.4^▴▴ g, the Body weight [3, 22] was 320.9^▴▴ g and the Systolic pressure ([4]; 60 mg/kg/d intragastric continuous, 1 d, 30 min after administration) was 158.77 ± 11.06 mmHg. The Systolic pressure ([4]; 60 mg/kg/d intragastric continuous, 7 d, 30 min after administration) was 153.41 ± 14.08 mmHg, the Systolic pressure ([4]; 60 mg/kg/d intragastric continuous, 13 d, 30 min after administration) was 151.38 ± 9.47 mmHg and the Systolic pressure ([4]; 60 mg/kg/d intragastric continuous, 19 d, 30 min after administration) was 155.74 ± 10.62 mmHg. The Systolic pressure ([4]; 60 mg/kg/d intragastric continuous, 25 d, 30 min after administration) was 154.94 ± 9.64 mmHg, the Systolic pressure ([4]; 60 mg/kg/d intragastric continuous, 35 d, 30 min after administration) was 150.95 ± 5.04 mmHg and the Systolic pressure ([4]; 60 mg/kg/d intragastric continuous, 49 d, 30 min after administration) was 155.06 ± 6.37 mmHg. The Systolic pressure ([4]; 60 mg/kg/d intragastric continuous, 56 d, 30 min after administration) was 153.95 ± 14.01 mmHg, the Systolic pressure ([4]; 60 mg/kg/d intragastric continuous, before administration) was 163.58 ± 10.36 mmHg and the Systolic pressure ([4]; 120 mg/kg/d intragastric continuous, 1 d, 30 min after administration) was 154.69 ± 9.85 mmHg. For the same molecule, the Systolic pressure ([4]; 120 mg/kg/d intragastric continuous, 7 d, 30 min after administration) was 153.74 ± 10.24 mmHg, the Systolic pressure ([4]; 120 mg/kg/d intragastric continuous, 13 d, 30 min after administration) was 150.39 ± 10.39 mmHg and the Systolic pressure ([4]; 120 mg/kg/d intragastric continuous, 19 d, 30 min after administration) was 149.72 ± 9.83 mmHg. It also gave a Systolic pressure ([4]; 120 mg/kg/d intragastric continuous, 25 d, 30 min after administration) of 149.02 ± 8.26 mmHg, a Systolic pressure ([4]; 120 mg/kg/d intragastric continuous, 35 d, 30 min after administration) of 151.72 ± 10.47 mmHg and a Systolic pressure ([4]; 120 mg/kg/d intragastric continuous, 49 d, 30 min after administration) of 153.42 ± 12.04 mmHg. The Systolic pressure ([4]; 120 mg/kg/d intragastric continuous, 56 d, 30 min after administration) was 148.62 ± 9.73 mmHg and the Systolic pressure ([4]; 120 mg/kg/d intragastric continuous, before administration) was 166.24 ± 12.14 mmHg.
